Results taken from ChEMBL document CHEMBL5338822, “The Role of Allylic Strain for Conformational Control in Medicinal Chemistry” (J Med Chem, 2023).

Assays:
[1] = biological target: T1, Sphingosine 1-phosphate receptor 1 (Homo sapiens, UniProt P21453); experiment: Antagonist activity at human S1P1 transfected in CHO cells incubated for 120 mins by [gamma-35S]GTP binding assay; assay type: functional, cell-based
[2] = biological target: T1, Sphingosine 1-phosphate receptor 1; experiment: Inhibition of human S1P1 expressed in human HeLa cells incubated for 20 mins by FLIPR assay; assay type: cell-based

T1 sequence (P21453 whole entry): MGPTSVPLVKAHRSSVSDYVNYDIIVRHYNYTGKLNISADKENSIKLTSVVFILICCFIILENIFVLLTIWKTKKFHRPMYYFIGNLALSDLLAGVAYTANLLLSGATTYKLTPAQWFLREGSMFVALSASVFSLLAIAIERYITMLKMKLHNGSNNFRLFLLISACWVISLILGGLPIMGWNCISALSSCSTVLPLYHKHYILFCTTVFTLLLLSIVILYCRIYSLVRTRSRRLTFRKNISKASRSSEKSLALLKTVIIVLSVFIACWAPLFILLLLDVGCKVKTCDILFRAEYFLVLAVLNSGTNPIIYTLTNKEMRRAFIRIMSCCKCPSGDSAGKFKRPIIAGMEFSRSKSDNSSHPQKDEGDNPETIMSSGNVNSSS

IC50 [1]: 4270 nM
IC50 [2]: 170 nM
Structure (SMILES): Cc1cc(-c2cccc(NCc3ccc(Cl)c(Cl)c3)c2)ccc1C(=O)N[C@@H](C)C(=O)O
